Data from patent EP4818176A1, “TETRACYCLIC DERIVATIVE INHIBITOR, AND PREPARATION METHOD AND USE THEREFOR” (Shanghai Hansoh Biomedical Co., Ltd., priority 2023, dated 2025).
Like-named read-outs stand apart in the source and are kept apart here.

What was measured:
[1] = biological target: T1, PRMT5/MEP50-MTA protein complex (Homo sapiens, UniProt O14744); experiment: Thermal shift assay: thermal stability (melting temperature) of PRMT5/MEP50-MTA protein complex; assay type: binding; settings: final compound concentration 8 µM; 2 µM PRMT5/MEP50, 2 µM MTA; Tm minus Tm of DMSO vehicle control
T1 construct: purchased Viva Biotech
From the text: Test Example 1: Determination of the ability of the compounds of the present invention to improve the thermal stability (melting temperature) of the PRMT5/MEP50-MTA protein complex.
1 Experimental objective: The objective of this test example is to determine the ability of the compound to improve the thermal stability of the PRMT5/MEP50-MTA protein complex, resulting in an increase in the protein melting temperature. 2 Experimental instruments: Quantitative PCR instrument (Quantstudio6 Flex) was purchased from Life Technologies; pipettes were purchased from Eppendorf or Rainin. 3 Experimental reagents and consumables: PRMT5/MEP50 protein was prepared by Viva Biotech; HEPES was purchased from Thermo Fisher Scientific (Cat. No. 15630080); DTT was purchased from Sigma (Cat. No. 43816-10ml); sodium chloride was purchased from Invitrogen (Cat. No. AM9760G); Protein Thermal Shift™ Dye Kit was purchased from Thermo Fisher Scientific (Cat. No. 4461146); methylthioadenosine (MTA) was purchased from Sigma (Cat. No. D5011). 4 Experimental method: In this experiment, the thermal shift method was used to measure the change in the melting temperature (Tm) of the PRMT5/MEP50-MTA protein complex before and after compound binding, thereby characterising the ability of the compound to improve the thermal stability of the PRMT5/MEP50-MTA protein complex. A solution containing 50 mM HEPES, 10 mM DTT, 2 µM MTA, SYPRO Orange and 250 mM NaCl was prepared as the experimental buffer. Human PRMT5/MEP50 protein was added to a final concentration of 2 µM, and the mixture was incubated at room temperature for 30 minutes. The above reaction mixture was aliquoted into 8-strip PCR tubes at 19.5 µL per tube. Then 0.5 µL of test compound or DMSO was added to each tube, providing a total reaction volume of 20 µL and a final compound concentration of 8 µM. 2.5% DMSO was set as the vehicle control. After incubation at room temperature for 10 minutes, the PCR tubes were placed in a PCR instrument, and the melt curve function was selected to measure the melting temperature of the PRMT5/MEP50-MTA protein complex in different treatment groups (heated from 25°C to 95°C, 0.03°C/s). 5 Experimental data processing method: The experimental data files from the PCR instrument were imported into the thermal shift software to obtain the melting temperature (Tm) for each treatment group.

[2] = tested on: MTAP Knockout HCT116 cells; experiment: Cell proliferation inhibition (CellTiter-Glo), HCT116 MTAP knockout cells; assay type: cell-based; settings: for Selectivity: HCT116 IC50 versus MTAP Knockout HCT116 IC50; for IC50: Homo sapiens
From the text: (§1) Test Example 2: Determination of the inhibitory effect of the compounds of the present invention on the proliferation activity of HCT116 and MTAP Knockout HCT116 cells.
(§2) 1 Experimental objective: The objective of this test example is to determine the inhibitory effect of the compound on the proliferation activity of HCT116 wild-type and HCT116 MTAP knockout cells. 2 Experimental instruments: Centrifuge (Eppendorf 5810R); microplate reader (BioTek Synergy H1 or PerkinElmer Envision); pipette (Eppendorf or Rainin). 3 Experimental reagents: HCT116 and MTAP Knockout HCT116 cells were purchased from Nanjing Cobioer; Cell Titer-Glo was purchased from Promega (Cat. No. G7573); McCoy'5A was purchased from Gibco (Cat. No. 12330031); FBS was purchased from Gibco (Cat. No. 10091148); PBS was purchased from Gibco (Cat. No. 10010023); trypsin was purchased from Gibco (Cat. No. 25200056); cell culture plates were purchased from Corning (Cat. No. 3610). 4 Experimental method: HCT116 and MTAP Knockout HCT116 cells were cultured in McCoy'5A medium containing 10% FBS until an appropriate cell density was reached. The cells were then collected and adjusted to a suitable concentration using complete medium. The cell suspension was seeded into a 96-well plate at 90 µL per well and allowed to adhere overnight in a 37°C, 5% CO2 incubator. Compound solutions of various concentrations were prepared using DMSO and culture medium, with a vehicle control set. The compound solutions were added to the 96-well plate at 10 µL per well, and the plate was incubated in a 37°C, 5% CO2 incubator for an additional 72-240 hours. After incubation, CellTiter-Glo solution was added, and the mixture was mixed uniformly by shaking, followed by incubation in the dark for 10 to 30 minutes. Luminescence was measured using a Synergy H1 or Envision microplate reader. 5 Experimental data processing method: The inhibition rate was calculated using the luminescence signal values, and the concentrations along with the inhibition rates were subjected to non-linear regression curve fitting using Graphpad Prism software to obtain the IC50 values.

HCT116 wild-type cells = experiment: Cell proliferation inhibition (CellTiter-Glo), HCT116 wild-type cells; assay type: cell-based; settings: Homo sapiens
From the text: as §1, §2

[3] = HCT-116, MTAP Knockout HCT116 cells, proliferation inhibition, Cell Titer-Glo, read-out: MTAP Knockout HCT116 IC50
[4] = HCT-116, HCT116 wild-type cells, proliferation inhibition, Cell Titer-Glo, read-out: HCT116 IC50
[5] = HCT-116, read-out: MTAP Knockout HCT116 IC50

T1 sequence (O14744 whole entry): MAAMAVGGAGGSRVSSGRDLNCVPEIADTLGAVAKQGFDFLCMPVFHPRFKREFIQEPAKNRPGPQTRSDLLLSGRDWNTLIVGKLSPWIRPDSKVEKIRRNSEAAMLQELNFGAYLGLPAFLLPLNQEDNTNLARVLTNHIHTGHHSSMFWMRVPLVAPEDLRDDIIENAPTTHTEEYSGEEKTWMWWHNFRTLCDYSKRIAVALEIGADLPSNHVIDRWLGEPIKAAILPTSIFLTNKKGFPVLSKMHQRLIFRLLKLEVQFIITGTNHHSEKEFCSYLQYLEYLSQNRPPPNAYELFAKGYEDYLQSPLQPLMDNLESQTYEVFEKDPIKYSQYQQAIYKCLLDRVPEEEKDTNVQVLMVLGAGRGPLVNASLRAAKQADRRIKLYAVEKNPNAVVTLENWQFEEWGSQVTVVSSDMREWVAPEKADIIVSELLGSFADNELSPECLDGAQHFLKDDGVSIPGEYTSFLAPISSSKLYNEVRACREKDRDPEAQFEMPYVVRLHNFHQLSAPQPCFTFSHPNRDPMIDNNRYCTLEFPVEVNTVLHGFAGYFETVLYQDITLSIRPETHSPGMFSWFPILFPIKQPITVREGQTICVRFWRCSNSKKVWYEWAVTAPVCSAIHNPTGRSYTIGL
T1 sequence (Q9BQA1 whole entry partner): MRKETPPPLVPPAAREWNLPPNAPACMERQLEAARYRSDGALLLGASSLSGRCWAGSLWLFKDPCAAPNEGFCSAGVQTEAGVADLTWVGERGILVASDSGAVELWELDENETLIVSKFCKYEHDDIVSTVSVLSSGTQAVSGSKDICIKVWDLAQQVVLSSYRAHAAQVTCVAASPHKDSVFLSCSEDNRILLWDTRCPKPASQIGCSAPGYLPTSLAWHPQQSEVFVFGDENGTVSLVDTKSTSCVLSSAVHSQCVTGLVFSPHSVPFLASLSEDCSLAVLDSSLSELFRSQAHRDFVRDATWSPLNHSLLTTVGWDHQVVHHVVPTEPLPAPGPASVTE

Compound	ΔTm at 8 µM [1] [°C]	Selectivity [2]	IC50 [2, 3] [nM]	IC50 (HCT116 wild-type cells; [4]) [nM]	IC50 [2, 5] [nM]	IC50 (HCT116 wild-type cells; HCT-116, read-out: HCT116 IC50) [nM]
CC(c1ccc(C(F)(F)F)cn1)N1CC/C=C\c2cc3nc(N)c4cncn4c3cc2C1=O (single isomer, unassigned) [Example 313-P1]	11.1	59	17	1020	–	–
Nc1nc2cc3c(cc2n2cncc12)C(=O)N(C1COCc2nc(C(F)(F)F)ccc21)CC/C=C\3 (racemic) [Example 311]	11.1	77	–	–	23	1740
C[C@H]1CCCN(Cc2ccc(C(F)(F)F)cn2)C(=O)c2cc3c(cc2C1)nc(N)c1cncn13 [Example 514-P2, (S)-4-amino-8-methyl-12-((5-(trifluoromethyl)pyridin-2-yl)methyl)-7,8,9,10,11,12-hexahydro-13H-azo[4,3-g]imidazo[1,5-a]quinoxalin-13-one]	11.6	71	–	–	14	1000
CC1OCc2c1c(N)nc1cc3c(cc21)C(=O)N(Cc1ccc(-c2c(F)cccc2F)cn1)CCCNC3 (stereo not shown) [Example 435, 4-Amino-12-((5-(2,6-difluorophenyl)pyridin-2-yl)methyl)-3-methyl-1,3,7,8,9,10,11,12-octahydro-13H-[1,5]diamine[7,8-g]furo[3,4-c]quinolin-13-one]	12.8	41	–	–	1.9	78
Nc1nc2cc3c(cc2n2cncc12)C(=O)N(Cc1ccc(C(F)(F)F)nn1)CC/C=C\3 [Example 418, (Z)-4-Amino-12-(6-(trifluoromethyl)pyridazin-3-yl)methyl-9,10,11,12-tetrahydro-13H-azocino[4,3-g]imidazo[1,5-a]quinoxalin-13-one]	11.5	54	–	–	20	1090
Nc1nc2cc3c(cc2n2cncc12)C(=O)N(Cc1ccc(S(F)(F)(F)(F)F)cc1)CCCOC3 [Example 214, 4-Amino-12-(4-(pentafluoro-λ^6-sulphanyl)benzyl)-9,10,11,12-tetrahydroimidazo[1,5-a][1,5]oxazonino[8,7-g]quinoxalin-13(7H)-one]	12.3	20	5.3	106	–	–
Nc1nc2cc3c(cc2n2cncc12)C(=O)N([C@@H]1COc2cc(C(F)(F)F)ccc21)CCC/C=C\3 (stereo in doubt) [Example 164-P1, rel-(R, Z)-4-amino-12-(6-(trifluoromethyl)-2,3-dihydrobenzofuran-3-yl)-9,10,11,12-tetrahydro-13H-azo[4,3-g]imidazo[1,5-a]quinoxalin-13-one]	11.2	40	14	556	–	–
CC1OCc2c1c(N)nc1cc3c(cc21)C(=O)N(Cc1ccc(S(F)(F)(F)(F)F)cn1)CCCOC3 (racemic) [Example 437, 4-Amino-3-methyl-12-((5-(pentafluorosulphanyl)pyridin-2-yl)methyl)-3,7,9,10,11,12-hexahydrofuro[3,4-c][1,5]oxazolo[7,8-g]quinolin-13(1H)-one]	12.2	64	–	–	3	191
Nc1nc2cc3c(cc2n2cncc12)C(=O)N(C1COCc2nc(C(F)(F)F)ccc21)CC/C=C\3 (stereo not shown) [Example 157, (Z)-4-Amino-11-(2-(trifluoromethyl)-5,8-dihydro-6H-pyrano[3,4-b]pyridin-5-yl)-10,11-dihydroazocino[4,3-g]imidazo[1,5-a]quinoxalin-12(9H)-one]	11.1	77	23	1740	–	–
Cn1ncc2c(N)nc3cc4c(cc3c21)C(=O)N(Cc1ccc(-c2c(F)cccc2F)cn1)CCCOC4 [Example 427, 4-Amino-12-((5-(2,6-difluorophenyl)pyridin-2-yl)methyl)-1-methyl-1,7,9,10,11,12-hexahydro-13H-[1,5]oxazolo[7,8-g]pyrazolo[4,3-c]quinolin-13-one]	13.7	30	–	–	0.9	27
Nc1nc2cc3c(cc2n2cncc12)C(=O)N(Cc1ccc(-c2c(F)cncc2F)cn1)CCC/C=C\3 [Example 419, (Z)-4-Amino-12-(3',5'-difluoro-[3,4'-bipyridin]-6-yl)methyl-9,10,11,12-tetrahydro-13H-azonino[4,3-g]imidazo[1,5-a]quinoxalin-13-one]	12.7	14	3.6	51	–	–
CC1CCN(Cc2ccc(C(F)(F)F)cn2)C(=O)c2cc3c(cc2CO1)nc(N)c1cncn13 (stereo not shown) [Example 177, 4-Amino-9-methyl-12-((5-(trifluoromethyl)pyridin-2-yl)methyl)-9,10,11,12-tetrahydroimidazo[1,5-a][1,5]oxazolo[8,7-g]quinoxalin-13(7H)-one]	11.2	84	–	–	18	1510
Nc1nc2cc3c(cc2c2c1COC2)C(=O)N(Cc1ccc(C(F)(F)F)cn1)CCC/C=C\3 [Example 173, (Z)-4-Amino-12-((5-(trifluoromethyl)pyridin-2-yl)methyl)-1,3,9,10,11,12-hexahydro-13H-azo[3,4-g]furo[3,4-c]quinolin-13-one]	11.6	80	3.5	279	–	–
Cn1ncc2c(N)nc3cc4c(cc3c21)C(=O)N(Cc1ccc(C(F)(F)F)cn1)CCCOC4 [Example 190, 4-Amino-1-methyl-12-((5-(trifluoromethyl)pyridin-2-yl)methyl)-1,7,9,10,11,12-hexahydro-13H-[1,5]oxazolo[7,8-g]pyrazolo[4,3-c]quinolin-13-one]	12.2	123	–	–	6.2	763
Nc1nc2cc3c(cc2c2c1COC2)C(=O)N(Cc1ccc(-c2c(F)cccc2F)cn1)CCCOC3 [Example 431, 4-Amino-12-(5-(2,6-difluorophenyl)pyridin-2-yl)methyl-3,7,9,10,11,12-hexahydrofuro[3,4-c][1,5]oxazolino[7,8-g]quinolin-13(1H)-one]	12.3	61	–	–	3.3	200
CC1CCCN(Cc2ccc(C(F)(F)F)cn2)C(=O)c2cc3c(cc2C1)nc(N)c1cncn13 (racemic) [Example 514, 4-Amino-8-methyl-12-((5-(trifluoromethyl)pyridin-2-yl)methyl)-7,8,9,10,11,12-hexahydro-13H-azo[4,3-g]imidazo[1,5-a]quinoxalin-13-one]	10.9	55	–	–	15	807
